Laboratory results published in PMC6328587 (Nature Communications, 2019).
“Also recorded” adds a separate entry of the source.

Columns and labels:
[1] = target: T1, p38γ (Homo sapiens, UniProt P53778); test: p38γ degradation, western blot in MDA-MB-231 cells; assay type: cell-based; conditions: concentrations up to 2.5 µM
T1 construct: endogenous in cells; host or cells: MDA-MB-231
T1 sequence (P53778 1-367): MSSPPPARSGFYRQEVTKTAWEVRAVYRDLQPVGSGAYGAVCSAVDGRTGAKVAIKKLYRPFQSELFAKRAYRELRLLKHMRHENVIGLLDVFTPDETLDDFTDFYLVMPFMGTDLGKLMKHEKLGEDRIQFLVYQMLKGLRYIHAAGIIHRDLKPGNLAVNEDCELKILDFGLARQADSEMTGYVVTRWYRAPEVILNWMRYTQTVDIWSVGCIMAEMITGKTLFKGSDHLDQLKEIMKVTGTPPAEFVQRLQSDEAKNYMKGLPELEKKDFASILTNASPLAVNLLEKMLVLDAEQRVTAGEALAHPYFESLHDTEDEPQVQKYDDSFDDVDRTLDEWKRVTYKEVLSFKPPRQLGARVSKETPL
Description: (§1) […] once with ice-cold PBS (1 × ), followed by lysis in buffer containing 25 mM Tris [pH 7.5], 0.25% sodium deoxycholate, 1% Triton X-100, supplemented with 1X protease inhibitor cocktail (Roche), and phosphatase inhibitors (10 mM NaF, 1 mM Na3VO4, and 20 mM β-glycerophosphate), unless otherwise noted. Lysates were spun at 14,000 × g for 10 min at 4 °C and supernatant was evaluated for protein content using a Pierce BCA Protein Assay (ThermoFisher Scientific). In all experiments, 25–50 μg of protein was loaded onto 10% SDS-PAGE gels or 4–20% Criterion TGX precast gradient gels (Bio-Rad), transferred to nitrocellulose membranes, and probed with the specified antibodies overnight at 4 °C in 1X TBS-Tween (Tris-buffered saline plus 0.02% Tween 20) containing 5% non-fat milk. Immunoblots were visualized using a Bio-Rad ChemiDoc imaging instrument and subsequently processed and quantified using the accompanying Bio-Rad ImageLab software. See Supplementary Figure 8 for uncropped scans of western blots shown in the main text figures.
(§2) Supplementary Figure 4 cont.
(§3) Supplementary Figure 4. Characterization of M APK fam ily degradation selectivity (related to Figures 1-2). (a) p38 M APK fam ily m em bers (α, β, δ, γ) were aligned using the T-Coffee multiple sequence alignm ent server. […] Note: JNK1 and JNK2 are expressed as two alternatively-spliced form s. […]

[2] = target: T2, ERK1 (Homo sapiens, UniProt P27361); test: ERK1 degradation, western blot in MDA-MB-231 cells; assay type: cell-based; conditions: 0.025-2.5 µM
T2 construct: endogenous in cells; host or cells: MDA-MB-231
T2 sequence (P27361 whole entry): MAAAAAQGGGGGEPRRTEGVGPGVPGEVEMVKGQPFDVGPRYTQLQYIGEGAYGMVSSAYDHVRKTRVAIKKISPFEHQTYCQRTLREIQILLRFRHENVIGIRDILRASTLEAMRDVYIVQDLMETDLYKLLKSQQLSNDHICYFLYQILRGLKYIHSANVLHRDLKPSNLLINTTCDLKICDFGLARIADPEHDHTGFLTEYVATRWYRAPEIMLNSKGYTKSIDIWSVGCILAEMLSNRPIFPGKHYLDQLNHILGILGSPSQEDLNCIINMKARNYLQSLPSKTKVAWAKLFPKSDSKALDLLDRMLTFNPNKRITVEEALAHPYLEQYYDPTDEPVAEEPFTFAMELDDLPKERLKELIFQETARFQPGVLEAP
Description: as §1, §2, §3

[3] = target: T3, VHL:PROTAC:p38α ternary complex (Homo sapiens, UniProt P40337+Q16539); test: AlphaLISA ternary complex assay; assay type: binding; conditions: His-p38α and GST-VBC 150 nM, increasing PROTAC
T3 construct: The plasmid contains an N-terminal His6 tag and encodes a region spanning amino acids 2–360 of the human p38α kinase; made in house; host or cells: E. coli BL21-CodonPlus(DE3)-RIPL (p38α); E. coli BL21(DE3) (GST-VBC)
T3 sequence (Q16539 2-360 limits assumed): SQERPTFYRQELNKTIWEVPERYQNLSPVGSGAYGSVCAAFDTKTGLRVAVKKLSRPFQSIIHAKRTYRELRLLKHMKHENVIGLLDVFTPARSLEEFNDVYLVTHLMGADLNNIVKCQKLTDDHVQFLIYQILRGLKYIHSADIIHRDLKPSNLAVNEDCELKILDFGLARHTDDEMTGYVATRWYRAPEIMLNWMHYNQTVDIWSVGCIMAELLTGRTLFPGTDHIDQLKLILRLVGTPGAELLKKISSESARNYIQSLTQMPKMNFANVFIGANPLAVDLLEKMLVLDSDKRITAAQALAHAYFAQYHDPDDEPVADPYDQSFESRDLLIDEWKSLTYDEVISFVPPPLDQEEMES
T3 sequence (P40337 whole entry, the tested form may be a part): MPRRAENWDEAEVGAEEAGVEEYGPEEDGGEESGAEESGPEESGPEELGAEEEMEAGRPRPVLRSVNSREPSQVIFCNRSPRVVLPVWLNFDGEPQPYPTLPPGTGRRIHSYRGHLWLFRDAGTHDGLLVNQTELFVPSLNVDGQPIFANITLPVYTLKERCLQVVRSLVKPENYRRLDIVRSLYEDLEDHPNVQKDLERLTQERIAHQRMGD
T3 sequence (Q15370 whole entry partner, the tested form may be a part): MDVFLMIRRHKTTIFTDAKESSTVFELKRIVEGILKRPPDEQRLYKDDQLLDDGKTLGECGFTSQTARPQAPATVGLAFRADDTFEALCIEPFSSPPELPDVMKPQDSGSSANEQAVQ
T3 sequence (Q15369 whole entry partner, the tested form may be a part): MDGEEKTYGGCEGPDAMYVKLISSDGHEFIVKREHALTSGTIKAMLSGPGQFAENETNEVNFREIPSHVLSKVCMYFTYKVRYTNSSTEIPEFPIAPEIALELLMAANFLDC
Description: Assays were performed at room temperature and plates sealed with transparent film between addition of reagents to prevent well contamination. All reagents were diluted in 50 mM HEPES pH 7.5, 50 mM NaCl, 69 µM Brij-35, and 0.1 mg mL^−1 BSA. Recombinant GST-VBC was mixed with His6-p38α and PROTAC (diluted one-in-three from 6× stock) to a final volume of 15 μL per well in a OptiPlate-384 well microplate (PerkinElmer) and incubated for 30 min. VBC and p38α were kept at a constant final concentration of 150 nM. In all, 7.5 μL of Anti-6xHis AlphaLISA Acceptor beads (PerkinElmer) were added to each well and plates were incubated for 15 min in the dark. In total, 7.5 μL of Alpha Glutathione Donor beads (PerkinElmer) were added to each well and plates were incubated for 45 min in the dark. Plates were read on a Synergy 2 microplate reader using the Gen5 imager software (BioTek Instruments) with an excitation wavelength of 680 nm and emission wavelength of 615 nm. Intensity values were plotted in Graphpad Prism with PROTAC concentration values represented on a log10 scale.

[4] = target: T4, mutant (K220E/T221E) p38δ (Homo sapiens, UniProt O15264, K220E/T221E); test: Degradation of transfected mutant p38δ in HeLa cells; assay type: cell-based; conditions: 24 h
T4 construct: expressed in transfected cells; host or cells: HeLa cells, Lipofectamine 2000, pcDNA5-p38delta-K220ET221E
T4 sequence (O15264 1-365 K220E/T221E): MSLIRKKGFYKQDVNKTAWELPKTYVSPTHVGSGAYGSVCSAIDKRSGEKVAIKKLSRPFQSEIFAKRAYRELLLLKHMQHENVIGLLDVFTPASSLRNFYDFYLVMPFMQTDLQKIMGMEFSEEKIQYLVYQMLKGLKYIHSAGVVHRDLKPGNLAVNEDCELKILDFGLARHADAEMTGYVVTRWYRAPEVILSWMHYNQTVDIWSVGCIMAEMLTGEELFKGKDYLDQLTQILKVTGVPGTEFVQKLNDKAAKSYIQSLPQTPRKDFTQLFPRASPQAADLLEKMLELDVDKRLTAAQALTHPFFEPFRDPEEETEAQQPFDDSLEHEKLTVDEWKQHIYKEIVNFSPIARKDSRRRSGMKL
Description: Mutant p38δ was generated by QuikChange Lightning site-directed mutagenesis kit (Agilent). Transfections were carried out using Lipofectamine 2000 reagent (Invitrogen) in HeLa cells seeded at 3 × 10^5 cells per six well. One microgram of FLAG-containing pcDNA5-p38delta-WT or pcDNA5-p38delta-K220ET221E was used per transfection. Opti-MEM media were changed after 6 h to DMEM (1 × ), at which point the indicated compounds were added for 24 h before harvesting.

Row | p38γ degradation [1] | ERK1 degradation [2] | SMILES | p38α:PROTAC:VHL ternary complex formation (AlphaLISA) [3] | degradation of double-mutant (K220E/T221E) p38δ [4]
1 | does not degrade | neither PROTAC degrades | COc1cc2c(Oc3ccc(NC(=O)C4(C(=O)Nc5ccc(F)cc5)CC4)cc3F)ccnc2cc1OCCCCOCCCCOCC(=O)N[C@H](C(=O)N1C[C@H](O)C[C@H]1C(=O)NCc1ccc(-c2scnc2C)cc1)C(C)(C)C [SJFα] | facilitates a VHL:PROTAC:p38α ternary complex | able to degrade; also recorded: potently degrades
2 | does not degrade | neither PROTAC degrades | COc1cc2c(Oc3ccc(NC(=O)C4(C(=O)Nc5ccc(F)cc5)CC4)cc3F)ccnc2cc1OCCOCCOCCOc1cc(-c2scnc2C)ccc1CNC(=O)[C@@H]1C[C@@H](O)CN1C(=O)[C@H](C(C)C)N1Cc2ccccc2C1=O [SJFδ] | no such ternary species is detectable | able to degrade
